Assay results reported in patent US9216968B2, “Heterocyclic derivative and pharmaceutical drug” (NIPPON SHINYAKU CO., LTD., priority 2011, dated 2015).
Counter-ions that a name gives are not always drawn.

Assays:
[1] = biological target: human mPGES-1 (Homo sapiens (Human), UniProt O14684); assay: mPGES-1 inhibiting activity (microsome fractions, PGE2 by HTRF); format: biochemical; details: microsomes from CHO-K1 cells transfected with human mPGES-1; PGH2 1 μM, 4° C., 60 seconds; read-out: mPGES-1 Inhibition IC50
Outline: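 PGE2 formation read by HTRF after 60 s at 4 °C with 1 μM PGH2 substrate, following 20 min compound preincubation (1% DMSO) with human mPGES-1 microsomes from transfected CHO-K1 cells. Buffer: potassium phosphate, reduced glutathione, pH 7.4; IC50 from activity relative to enzyme-free blank.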

[2] = tested on: A549 cells; assay: Inhibition of PGE2 production in A549 cell (IL-1β stimulated); format: cell-based, human; details: Homo sapiens, A549, 24 h, IL-1β 5 ng/well, PGE2 in culture medium
Outline: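 After IL-1β (5 ng/well) stimulation for 24 h at 37 °C, following a 60-min compound pretreatment in RPMI with 3% FBS, medium PGE2 (HTRF) and PGF2α (EIA) from human A549 cells were quantified. 100% activity set as IL-1β-induced minus basal production; IC50 calculated.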

Sequence of human mPGES-1 (O14684 whole entry): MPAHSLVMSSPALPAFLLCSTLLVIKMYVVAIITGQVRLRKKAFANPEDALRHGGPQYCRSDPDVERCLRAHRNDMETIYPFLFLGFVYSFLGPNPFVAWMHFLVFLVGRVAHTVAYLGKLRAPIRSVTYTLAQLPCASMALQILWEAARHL

Compound	IC50 [1] [nM]	IC50 [2] [nM]
Cc1c(Cl)cccc1NC(=O)c1cc(NC(=O)c2ccccc2C(F)(F)F)cc2[nH]c(NCC(=O)O)nc12 [Example 161, N-{4-[(3-Chloro-2-methylphenyl)carbamoyl]-6-({[2-(trifluoromethyl)phenyl]carbonyl}amino)-1H-benzimidazol-2-yl}glycine hydrochloride]	3.8	> 10000
Cc1c(Cl)cccc1NC(=O)c1cc(NC(=O)c2ccccc2C(F)(F)F)cc2c1nc(NCC(C)(C)CO)n2C [Example 162, N-(3-Chloro-2-methylphenyl)-2-[(3-hydroxy-2,2-dimethylpropyl)amino]-1-methyl-6-({[2-(trifluoromethyl)phenyl]carbonyl}amino)-1H-benzimidazole-4-carboxamide hydrochloride]	23.8	52.2
Cc1c(Cl)cccc1NC(=O)c1cc(NC(=O)c2ccccc2C(F)(F)F)cc2[nH]c(N3CCCC3)nc12 [Example 164, N-(3-Chloro-2-methylphenyl)-2-(pyrrolidin-1-yl)-6-({[2-(trifluoromethyl)phenyl]carbonyl}amino)-1H-benzimidazole-4-carb oxamide hydrochloride]	0.3	13.3
Cc1c(Cl)cccc1NC(=O)c1cc(NC(=O)c2ccccc2C(F)(F)F)cc2[nH]c(N3CCC3)nc12 [Example 165, 2-(Azetidin-1-yl)-N-(3-chloro-2-methylphenyl)-6-({[2-(trifluoromethyl)phenyl]carbonyl}amino)-1H-benzimidazole-4-carboxamide hydrochloride]	1.3	7.4
COC1CN(c2nc3c(C(=O)Nc4cccc(Cl)c4C)cc(NC(=O)c4ccccc4C(F)(F)F)cc3[nH]2)C1 [Example 166, N-(3-Chloro-2-methylphenyl)-2-(3-methoxyazetidin-1-yl)-6-({[2-(trifluoromethyl)phenyl]carbonyl}amino)-1H-benzimidazole-4-carboxamide hydrochloride]	3.2	29
Cc1c(Cl)cccc1NC(=O)c1cc(NC(=O)c2ccccc2C(F)(F)F)cc2[nH]c(NC[C@@H]3CCCO3)nc12 [Example 168, N-(3-Chloro-2-methylphenyl)-2-{[(2S)-tetrahydrofuran-2-ylmethyl]amino}-6-({[2-(trifluoromethyl)phenyl]carbonyl}amino)-1H-benzimidazole-4-carboxamide hydrochloride]	3.2	23.9
Cc1c(Cl)cccc1NC(=O)c1cc(NC(=O)c2ccccc2C(F)(F)F)cc2[nH]c(NC[C@H]3CCCO3)nc12 [Example 169, N-(3-Chloro-2-methylphenyl)-2-{[(2R)-tetrahydrofuran-2-ylmethyl]amino}-6-({[2-(trifluoromethyl)phenyl]carbonyl}amino)-1H-benzimidazole-4-carboxamide hydrochloride]	2.4	88.6
Cc1c(Cl)cccc1NC(=O)c1cc(NC(=O)c2ccccc2C(F)(F)F)cc2[nH]c(N[C@H](CO)C(C)C)nc12 [Example 170, N-(3-Chloro-2-methylphenyl)-2-{[(2S)-1-hydroxy-3-methylbutan-2-yl]amino}-6-({[2-(trifluoromethyl)phenyl]carbonyl}amino-1H-benzimidazole-4-carboxamide hydrochloride]	3.2	17.8
Cc1c(Cl)cccc1NC(=O)c1cc(NC(=O)c2ccccc2C(F)(F)F)cc2[nH]c(N[C@@H](CO)C(C)C)nc12 [Example 171, N-(3-Chloro-2-methylphenyl)-2-{[(2R)-1-hydroxy-3-methylbutan-2-yl]amino}-6-({[2-(trifluoromethyl)phenyl]carbonyl}amino-1H-benzimidazole-4-carboxamide hydrochloride]	4.7	97.8
Cc1c(Cl)cccc1NC(=O)c1cc(NC(=O)c2ccccc2C(F)(F)F)cc2[nH]c(NCCOC(C)C)nc12 [Example 175, N-(3-Chloro-2-methylphenyl)-2-{[2-(propan-2-yloxy)ethyl]amino}-6-({[2-(trifluoromethyl)phenyl]carbonyl}amino)-1H-benzimidazole-4-carboxamide hydrochloride]	3.6	144
Cc1c(Cl)cccc1NC(=O)c1cc(NC(=O)c2ccccc2C(F)(F)F)cc2[nH]c(NCCOC(C)(C)C)nc12 [Example 176, 2-[(2-tert-Butoxyethyl)amino]-N-(3-chloro-2-methylphenyl)-6-({[2-(trifluoromethyl)phenyl]carbonyl}amino)-1H-benzimidazole-4-carboxamide hydrochloride]	0.3	138
CSCCNc1nc2c(C(=O)Nc3cccc(Cl)c3C)cc(NC(=O)c3ccccc3C(F)(F)F)cc2[nH]1 [Example 178, N-(3-Chloro-2-methylphenyl)-2-{[2-(methylsulfanyl)ethyl]amino}-6-({[2-(trifluoromethyl)phenyl]carbonyl}amino)-1H-benzimidazole-4-carboxamide hydrochloride]	1.2	12.8
CSc1nc2c(C(=O)Nc3cccc(Cl)c3C)cc(NC(=O)c3ccccc3C(F)(F)F)cc2[nH]1 [Example 179, N-(3-Chloro-2-methylphenyl)-2-(methylsulfanyl)-6-({[2-(trifluoromethyl)phenyl]carbonyl}amino)-1H-benzimidazole-4-carboxamide]	3.6	20.2
Cc1c(Cl)cccc1NC(=O)c1cc(NC(=O)c2ccccc2C(F)(F)F)cc2[nH]c(S(C)(=O)=O)nc12 [Example 180, N-(3-Chloro-2-methylphenyl)-2-(methylsulfonyl)-6-({[2-(trifluoromethyl)phenyl]carbonyl}amino)-1H-benzimidazole-4-carboxamide]	1.1	774
Cc1c(Cl)cccc1NC(=O)c1cc(NC(=O)c2ccccc2C(F)(F)F)cc2[nH]c([S+](C)[O-])nc12 (stereo not shown) [Example 181, N-(3-Chloro-2-methylphenyl)-2-(methylsulfinyl)-6-({[2-(trifluoromethyl)phenyl]carbonyl}amino)-1H-benzimidazole-4-carboxamide]	1.1	705
Cc1c(Cl)cccc1NC(=O)c1cc(NC(=O)c2c(F)cccc2Cl)cc2[nH]c(N(C)C)nc12 [Example 182, 6-{[(2-Chloro-6-fluorophenyl)carbonyl]amino}-N-(3-chloro-2-methylphenyl)-2-(dimethylamino)-1H-benzimidazole-4-carboxamide hydrochloride]	1.6	38.4

Second part, the compound after the results:

IC50 [1] [nM]	IC50 [2] [nM]	Compound
7.6	71.6	Cc1c(Cl)cccc1NC(=O)c1cc(NC(=O)c2ccccc2C(F)(F)F)cc2[nH]c(NCC(=O)OC(C)(C)C)nc12 [Example 160, tert-Butyl N-{4-[(3-chloro-2-methylphenyl)carbamoyl]-6-({[2-(trifluoromethyl)phenyl]carbonyl}amino)-1H-benzimidazol-2-yl}glycinate hydrochloride]
5.9	23.2	COCC(C)(C)CNc1nc2c(C(=O)Nc3cccc(Cl)c3C)cc(NC(=O)c3ccccc3C(F)(F)F)cc2[nH]1 [Example 163, N-(3-Chloro-2-methylphenyl)-2-[(3-methoxy-2,2-dimethylpropyl)amino]-6-({[2-(trifluoromethyl)phenyl]carbonyl}amino)-1H-benzimidazole-4-carboxamide hydrochloride]
1	217	Cc1c(Cl)cccc1NC(=O)c1cc(NC(=O)c2ccccc2C(F)(F)F)cc2[nH]c(NCC(C)(C)O)nc12 [Example 167, N-(3-Chloro-2-methylphenyl)-2-[(2-hydroxy-2-methylpropyl)amino]-6-({[2-(trifluoromethyl)phenyl]carbonyl}amino)-1H-benz imidazole-4-carboxamide hydrochloride]
4.5	134	Cc1c(Cl)cccc1NC(=O)c1cc(NC(=O)c2ccccc2C(F)(F)F)cc2[nH]c(N[C@H](CO)C(C)(C)C)nc12 [Example 172, N-(3-Chloro-2-methylphenyl)-2-{[(2S)-1-hydroxy-3,3-dimethylbutan-2-yl]amino}-6-({[2-(trifluoromethyl)phenyl]carbonyl}amino)-1H-benzimidazole-4-carboxamide hydrochloride]
1.1	60.8	COCC(C)(C)CN(C)c1nc2c(C(=O)Nc3cccc(Cl)c3C)cc(NC(=O)c3ccccc3C(F)(F)F)cc2[nH]1 [Example 173, N-(3-Chloro-2-methylphenyl)-2-[(3-methoxy-2,2-dimethylpropyl)(methyl)amino]-6-({[2-(trifluoromethyl)phenyl]carbonyl}amino)-1H-benzimidazole-4-carboxamide hydrochloride]
2	117	COCCCNc1nc2c(C(=O)Nc3cccc(Cl)c3C)cc(NC(=O)c3ccccc3C(F)(F)F)cc2[nH]1 [Example 174, N-(3-Chloro-2-methylphenyl)-2-[(3-methoxypropyl)amino]-6-({[2-(trifluoromethyl)phenyl]carbonyl}amino)-1H-benzimidazole-4-carboxamide hydrochloride]
8.3	45.2	COC(C)(C)CNc1nc2c(C(=O)Nc3cccc(Cl)c3C)cc(NC(=O)c3ccccc3C(F)(F)F)cc2[nH]1 [Example 177, N-(3-Chloro-2-methylphenyl)-2-[(2-methoxy-2-methylpropyl)amino]-6-({[2-(trifluoromethyl)phenyl]carbonyl}amino)-1H-benz imidazole-4-carboxamide hydrochloride]
